Test results from article PMC12469503, “Exploring the Antimicrobial and Antiviral Properties of Cryptic Peptides from Human Fibrinogen” (International Journal of Molecular Sciences, 2025).
Where two headings read alike, the source gives them in different places. Ends that are not written are not given here.

Experiments:
[1] = test system: Pseudomonas aeruginosa PAO1; details: for MIC: Table 2, Pseudomonas aeruginosa PAO1
[2] = test system: Pseudomonas aeruginosa PAO1
[3] = test system: Staphylococcus aureus ATCC 6538P; details: for MBC/MIC: Table 2, Staphylococcus aureus ATCC 6538P; for MBC: ATCC 6538
[4] = test system: Salmonella typhimurium ATCC 14028; experiment: MIC, broth microdilution; assay type: cell-based; details: Table 1; for MIC S. typ.: broth microdilution, Nutrient Broth 0.5×, overnight 37 °C, minimum of three independent experiments
Procedure: MIC values were determined on Gram-positive and Gram-negative bacteria by the broth microdilution method for antimicrobial peptides previously described [33, 89] with minor modifications.
Bacterial strains were grown in Luria-Bertani (LB) medium overnight at 37 °C and then diluted in Nutrient Broth at a final concentration of ~5 × 10^5 CFU/mL per well. Twofold serial dilutions of peptides were carried out in the test wells to obtain concentrations ranging from 50 μM to 0.05 μM. Plates were incubated overnight at 37 °C.
MIC value was defined as the lowest concentration at which growth was inhibited. Three independent experiments were performed for each MIC value.

[5] = test system: Escherichia coli ATCC 25922
[6] = test system: Klebsiella pneumonia ATCC 700603; details: for MIC K. pne.: ATCC 700603
[7] = test system: Acinetobacter baumanii ATCC 17878
[8] = test system: Salmonella enteriditis 706 RIVM
[9] = test system: Pseudomonas aeruginosa PA14
[10] = test system: Pseudomonas aeruginosa RP73 (clinical isolate)
[11] = test system: Staphylococcus aureus ATCC 6538P; details: ATCC 6538
[12] = test system: Enterococcus faecalis ATCC 29212
[13] = assay type: physicochemical
Source text: The six peptides were produced in the recombinant form by using a previously described strategy that exploit the frog protein onconase (ONC) as a carrier to drive the peptide to inclusion bodies. The fusion proteins were expressed in Escherichia coli strain BL21DE3, using the pET22b(+) vector and named: ONC-DCless-H6-(P)FIBα-GVV27, ONC-DCless-H6-(P)FIBα-SFR22, ONC-DCless-H6-(P)FIBβ-GVV28, ONC-DCless-H6-(P)FIBβ-NWK23, ONC-DCless-H6-(P)FIBγ-GII30, ONC-DCless-H6-(P)FIBγ-TWK25 (nucleotide and amino acid sequences are reported in Supplementary Figure S1). […] Peptides were released by hydrolysis of an acidic labile “Asp-Pro” sequence leading to recombinant peptides endowed with an additional Pro residue at the N-terminus. Thus, the recombinant forms of these peptides are herein named (P)FIBα-GVV27, (P)FIBα-SFR22, (P)FIBβ-GVV28, (P)FIBβ-NWK23, (P)FIBγ-GII30, (P)FIBγ-TWK25. Hydrolysis efficiencies of 95% were estimated for all the recombinant proteins (Supplementary Figure S3). To purify the recombinant peptides from the hydrolysis mixtures, the carrier and the uncleaved fusion protein were selectively precipitated by increasing the pH to 7 exploiting the fact that ONC is insoluble at pH higher than 5, whereas most AMPs are soluble also at neutral pH. […] Therefore, purification of (P)FIBα-SFR22, (P)FIBα-GVV27, (P)FIBβ-NWK23 and (P)FIBγ-TWK25 was first performed by selective precipitation, to remove the carrier and the uncleaved fusion protein, followed by Reverse Phase High-Performance Liquid Chromatography (RP-HPLC) on a C18 column, whereas purification of (P)FIBβ-GVV28 and (P)FIBγ-GII30 was performed directly by RP-HPLC omitting the selective precipitation step. Final yields of all recombinant peptides ranged from approximately 6 to 12 mg per liter of LB culture. Peptide purity, as determined by RP-HPLC, typically varied between 95% and 99% (Supplementary Figure S4).
Peptides (P)FIBα-GVV27, (P)FIBα-SFR22, (P)FIBβ-NWK23 and (P)FIBγ-TWK25 were separated from the carrier and the uncleaved fusion proteins as previously described. The hydrolysis mixture was neutralized to pH 7–7.2 by adding 1 M NH3 and incubated for 1 h at 25 °C under nitrogen atmosphere in a water bath. […] Supernatant and insoluble fraction were analyzed by SDS-PAGE. Concentration of the peptide into the soluble fraction was determined by spectrophotometric analyses using extinction coefficients (Supplementary Table S1) calculated by the ProtParam tool. After the selective precipitation step, purification of the peptide was performed by RP-HPLC. The linear gradients used are listed in Supplementary Table S2. Purification of (P)FIBβ-GVV28 and (P)FIBγ-GII30 was performed directly by RP-HPLC, omitting the selective precipitation step. Purified peptides were lyophilized and dissolved in deionized water. Samples were stored at −80 °C under nitrogen atmosphere. Purity of peptides was evaluated by RP-HPLC on Europa Protein 300 C18 column (5 μm, 25 × 1) using the linear gradients listed in Supplementary Table S2. The identity of the peptides was confirmed by mass spectrometry.

HCoV-229E = details: Vero cells; for antiviral activity against HCoV-229E: co-treatment assay, from 50 μM peptide
[14] = test system: P. aeruginosa PAO1 biofilm; experiment: Antibiofilm attachment assay, confocal microscopy; details: peptide 20 µM added with bacteria, stained after 4 h, Live/Dead BacLight, three independent experiments, t-test vs control
[15] = test system: P. aeruginosa PAO1 biofilm; experiment: Antibiofilm detachment assay, confocal microscopy; details: peptide 20 µM on 24 h pre-formed biofilm, further 24 h, Live/Dead BacLight, three independent experiments
[16] = Table 2, Pseudomonas aeruginosa PAO1
[17] = Table 1, broth microdilution, Nutrient Broth 0.5×, overnight 37 °C, minimum of three independent experiments
[18] = Table 1, broth microdilution, Nutrient Broth 0.5×, ~5 × 10^5 CFU/mL, overnight 37 °C, minimum of three independent experiments
[19] = Table 1, control antibiotic, twofold dilutions from 64 µg/mL

| Compound | MBC/MIC [2, 16] | MBC/MIC [3] | MIC S. typ. [4] [µM] | MIC E. coli ([5]; ATCC 25922) [µM] | MIC K. pne. [6] [µM] | MIC PAO1 [1] [µM] | MIC PA14 ([9]; PA14) [µM] | MIC RP73 ([10]; RP73 (clinical isolate)) [µM] | MIC S. aur. [11] [µM] | MIC E. fae. ([12]; ATCC 29212) [µM] | MIC A. bau. [7, 17] [µM] | MIC S. ent. [8] [µM] | MIC PA14 [9, 17] [µM] | MIC E. fae. [12, 17] [µM] | also measured |
| --- | --- | --- | --- | --- | --- | --- | --- | --- | --- | --- | --- | --- | --- | --- | --- |
| CC[C@H](C)[C@H](NC(=O)[C@H](CCCCN)NC(=O)[C@H](CCC(=O)O)NC(=O)[C@H](CCCCN)NC(=O)[C@H](CO)NC(=O)[C@H](CCCCN)NC(=O)[C@H](CCCNC(=N)N)NC(=O)[C@H](Cc1ccccc1)NC(=O)[C@H](Cc1ccccc1)NC(=O)[C@H](CC(=O)O)NC(=O)CNC(=O)[C@H](CC(C)C)NC(=O)[C@@H](N)CC(C)C)C(=O)NCC(=O)N[C@@H](CCCCN)C(=O)N[C@@H](CCC(=O)O)C(=O)N[C@@H](Cc1ccccc1)C(=O)N[C@@H](CCCCN)C(=O)N[C@@H](CCCNC(=N)N)C(=O)N[C@H](C(=O)N[C@H](C(=O)N[C@@H](CCC(N)=O)C(=O)N[C@@H](CCCNC(=N)N)C(=O)N[C@H](C(=O)N[C@@H](CCCCN)C(=O)N[C@@H](CC(=O)O)C(=O)N[C@@H](Cc1ccccc1)C(=O)N[C@@H](CC(C)C)C(=O)N[C@@H](CCCNC(=N)N)C(=O)N[C@@H](CC(N)=O)C(=O)N[C@@H](CC(C)C)C(=O)N[C@H](C(=O)N1CCC[C@H]1C(=O)N[C@@H](CCCNC(=N)N)C(=O)N[C@H](C(=O)N[C@@H](CCC(=O)O)C(=O)N[C@@H](CO)C(=O)O)[C@@H](C)O)C(C)C)[C@@H](C)CC)C(C)C)[C@@H](C)CC [LL37, reference compound] | – | – | – | – | – | – | – | – | – | – | – | – | – | – | MIC ([1]; minimum of three independent experiments): 1.56 µM; MBC ([2]; Table 2, Pseudomonas aeruginosa PAO1, […], subculture on LB agar): 1.56 µM |
| NC[C@H]1O[C@H](O[C@H]2[C@H](O)[C@@H](O[C@H]3O[C@H](CO)[C@@H](O)[C@H](N)[C@H]3O)[C@H](N)C[C@@H]2N)[C@H](N)C[C@@H]1O [Tobramycin] | 2 | 2 | – | – | – | – | – | – | – | – | – | – | – | – | – |
| Colistin [reference compound] | 1 | – | – | – | – | – | – | – | – | – | – | – | – | – | MIC ([1]; antibiotics): 0.5 µg/mL; MBC ([2]; Table 2, Pseudomonas aeruginosa PAO1, antibiotics): 0.5 µg/mL |
| GVVWMNWKGSWYSMRKMSMKIRPFFPQQ [FIBβ-GVV28] | – | – | 12.5 | 6.25 | 25 | 6.25 | 6.25 | 6.25 | 3.12 | 6.25 | – | – | – | – | MIC A. bau. ([7]; ATCC 17878): 6.25 µM; MIC S. ent. [8, 17]: 12.5 µM |
| GVVWVSFRGADYSLRAVRMKIRPLVTQ [FIBα-GVV27] | – | – | 6.25 | 12.5 | 25 | 6.25 | – | 3.12 | 6.25 | – | 6.25 | 12.5 | 6.25 | 6.25 | – |
| H-PGIIWATWKTRWYSMKKTTMKIIPFNRLTIG [(P)FIBγ-GII30] | 1 | 1 | 6.25 | 12.5 | 25 | 12.5 | – | 3.12 | 6.25 | – | 6.25 | 12.5 | 6.25 | 6.25 | solubility / aggregation at pH 7 [13]: particularly prone to aggregation and precipitation; MBC ([2]; PAO1): 12.5 µM; MBC [3]: 6.25 µM; antiviral activity against HCoV-229E (HCoV-229E): strong antiviral activity; IC50 (HCoV-229E; read-out: IC50 against HCoV-229E, virus pre-treatment assay (virus incubated with peptide at 37 °C before infection)): 1300 nM; fluorescence signal of SYTO 9 (live cells), attachment assay [14]: significantly reduced |
| H-PGVVWVSFRGADYSLRAVRMKIRPLVTQ [(P)FIBα-GVV27] | 1 | 1 | 6.25 | 12.5 | 50 | 6.25 | – | 3.12 | 6.25 | – | 6.25 | 12.5 | 6.25 | 6.25 | solubility / aggregation at pH 7 [13]: soluble at pH 7; MBC ([2]; PAO1): 6.25 µM; MBC [3]: 6.25 µM; antiviral activity against HCoV-229E (HCoV-229E): strong antiviral activity; fluorescence signal of SYTO 9 (live cells), attachment assay [14]: significantly reduced; SYTO 9 / PI signal, detachment assay [15]: reduction of the SYTO 9 signal coupled with an increase of the PI signal |
| H-PNWKGSWYSMRKMSMKIRPFFPQQ [(P)FIBβ-NWK23] | 1 | 1 | 6.25 | – | 25 | 6.25 | 3.12 | 3.12 | 3.12 | – | 6.25 | 12.5 | – | 6.25 | solubility / aggregation at pH 7 [13]: soluble at pH 7; MIC E. coli [5, 18]: 6.25 µM; MBC ([2]; PAO1): 6.25 µM; MBC [3]: 3.12 µM; antiviral activity against HCoV-229E (HCoV-229E): absence of efficacy; fluorescence signal of SYTO 9 (live cells), attachment assay [14]: lower, not significant reduction |
| NWKGSWYSMRKMSMKIRPFFPQQ [FIBβ-NWK23] | – | – | 12.5 | 6.25 | 25 | 6.25 | 3.12 | 6.25 | 3.12 | 6.25 | – | – | – | – | MIC A. bau. ([7]; ATCC 17878): 6.25 µM; MIC S. ent. [8, 17]: 12.5 µM |
| Polymyxin B [reference compound] | – | – | – | – | – | – | – | – | – | – | – | – | – | – | MIC S. typ. (antibiotics) ([4]; control antibiotic, twofold dilutions from 64 µg/mL): 0.12 µg/mL; MIC E. coli (antibiotics) [5, 19]: 0.5 µg/mL; MIC K. pne. (antibiotics) [6, 19]: 0.5 µg/mL; MIC A. bau. (antibiotics) [7, 19]: 0.5 µg/mL; MIC S. ent. (antibiotics) [8, 19]: 0.5 µg/mL; MIC PAO1 (antibiotics) [1, 19]: 0.25 µg/mL; MIC PA14 (antibiotics) [9, 19]: 0.25 µg/mL; MIC RP73 (antibiotics) [10, 19]: 0.12 µg/mL |
| SFRGADYSLRAVRMKIRPLVTQ [FIBα-SFR22] | – | – | 50 | 25 | >50 | 12.5 | 12.5 | 12.5 | 12.5 | 6.25 | – | 50 | – | – | MIC A. bau. ([7]; ATCC 17878): 25 µM |
| TWKTRWYSMKKTTMKIIPFNRLTIG [FIBγ-TWK25] | – | – | 3.12 | – | 6.25 | 3.12 | – | – | 1.56 | 6.25 | 3.12 | 6.25 | 3.12 | – | MIC E. coli [5, 18]: 3.12 µM; MIC RP73 [10, 17]: 3.12 µM |
